{"source": "patent US20260209864A1", "about": "“METHOD FOR DETERMINING AND IMPROVING THE POTENTIAL EFFICACY OF ANTICANCER TREATMENT” (ASSISTANCE PUBLIQUE - HOPITAUX DE PARIS, priority 2022, published 2026)", "origin": "cited, not measured here", "key": {"[1]": {"tested_on": "hematological malignancies", "settings": "early administration during allo-HSCT"}, "[2]": {"settings": "after lung transplantation"}}}
{"smiles": "CC[C@H]1OC(=O)[C@H](C)[C@@H](O[C@H]2C[C@@](C)(OC)[C@@H](O)[C@H](C)O2)[C@H](C)[C@@H](O[C@@H]2O[C@H](C)C[C@H](N(C)C)[C@H]2O)[C@](C)(O)C[C@@H](C)CN(C)[C@H](C)[C@@H](O)[C@]1(C)O", "note": "[azithromycin]", "values": [{"measurement": "risk of hematological malignancies relapses", "setting": "[1]", "value": "unexpectedly increased risk"}, {"measurement": "prevention of BOS", "setting": "[2]", "value": "prevents BOS"}]}
